Columns and labels:
[1] = biological target: LATS1 (Homo sapiens (Human), UniProt O95835); experiment: LATS1 biochemical assay (Table 1A, Compound Examples 1-290; method in the earlier part)
[2] = tested on: Phospho-YAP (SER127) in HaCaT cells; experiment: pYAP HTRF Assay (HaCaT Cells); format: cell-based, human; details: Homo sapiens, 2 hours
Procedure, shortened: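 Phospho-YAP (Ser127) was measured by HTRF (665 nm/620 nm ratio) in HaCaT cells. Cells were grown 48 hours at 37° C at 5500 cells/well, exposed to compound for 2 hours, and incubated with detection reagents for 20 hrs at room temperature.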

[3] = tested on: YAP nuclear translocation in HaCaT cells; experiment: YAP Translocation Assay (HaCaT Cells); format: cell-based, human; details: Homo sapiens, 24 hours
Procedure, shortened: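 HaCaT cells (20,000/well) in DMEM + 10% FBS were plated overnight at 37° C, then exposed to compound for 24 h at 37° C. Cells were fixed with PFA, permeabilized with 0.1% Triton/1.5% BSA and imaged by high-content imaging.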

[4] = tested on: Phospho-YAP (Ser127) in JHH-5 cells; experiment: pYAP HTRF Assay (JHH-5 cells); format: cell-based; details: 2 hours
Experimental: Briefly, JHH-5 cells are suspended at 0.48×10^6 cells/ml in William's E medium without phenol-red (Thermo Fisher Scientific Gibco catalog number A1217601) supplemented with 10% (v/v) heat-inactivated fetal bovine serum (Thermo Fisher Scientific Gibco catalog number 16140071) and penicillin-streptomycin at 100 U/ml each (Thermo Fisher Scientific Gibco catalog number 15140122). Cells are dispensed into 384well clear bottom culture plates (50 ul/well, at 24000 cells per well, Greiner catalog number 781091), and incubated for 24 hours in a cell culture incubator at 37° C. Test compounds are transferred into culture plates containing JHH-5 cells using an Echo550 (Labcyte) acoustic dispenser (50 nl/well), followed by incubation for 2 hours at 37° C. Lysis buffer (part of CisBio kit catalog number 64YAPPEI) is added to the assay plates as a four-fold concentrate (corresponding to 16 ul/well) and incubated for 30 minutes at room temperature with agitation. Lysate is transferred from culture plates into white low-volume 384well assay plates (12 ul/well, Greiner catalog number 784075), followed by the addition of 3 ul/well of detection antibodies (part of CisBio kit catalog number 64YAPPEI: 1:40 dilution of each pYAP d2 antibody and pYAP cryptate antibody stocks). The plates are sealed and incubated overnight (18 hours) at room temperature protected from light. Plates are read on an EnVision plate reader (Perkin Elmer) at emission wavelengths of 665 nm and 620 nm. The HTRF signal ratio x per well is calculated as [x=Signal(665 nm)/Signal(620 nm)×10000] as specified in the manufacturer's protocol.

[5] = biological target: Human LATS1 kinase domain protein (Homo sapiens (Human), UniProt O95835); experiment: LATS1 Biochemical Caliper Assay (Compound Examples 291-335); details: Caliper EZ Reader
Sequence of Human LATS1 kinase domain protein (O95835 whole entry, looked up, the tested form may be a part): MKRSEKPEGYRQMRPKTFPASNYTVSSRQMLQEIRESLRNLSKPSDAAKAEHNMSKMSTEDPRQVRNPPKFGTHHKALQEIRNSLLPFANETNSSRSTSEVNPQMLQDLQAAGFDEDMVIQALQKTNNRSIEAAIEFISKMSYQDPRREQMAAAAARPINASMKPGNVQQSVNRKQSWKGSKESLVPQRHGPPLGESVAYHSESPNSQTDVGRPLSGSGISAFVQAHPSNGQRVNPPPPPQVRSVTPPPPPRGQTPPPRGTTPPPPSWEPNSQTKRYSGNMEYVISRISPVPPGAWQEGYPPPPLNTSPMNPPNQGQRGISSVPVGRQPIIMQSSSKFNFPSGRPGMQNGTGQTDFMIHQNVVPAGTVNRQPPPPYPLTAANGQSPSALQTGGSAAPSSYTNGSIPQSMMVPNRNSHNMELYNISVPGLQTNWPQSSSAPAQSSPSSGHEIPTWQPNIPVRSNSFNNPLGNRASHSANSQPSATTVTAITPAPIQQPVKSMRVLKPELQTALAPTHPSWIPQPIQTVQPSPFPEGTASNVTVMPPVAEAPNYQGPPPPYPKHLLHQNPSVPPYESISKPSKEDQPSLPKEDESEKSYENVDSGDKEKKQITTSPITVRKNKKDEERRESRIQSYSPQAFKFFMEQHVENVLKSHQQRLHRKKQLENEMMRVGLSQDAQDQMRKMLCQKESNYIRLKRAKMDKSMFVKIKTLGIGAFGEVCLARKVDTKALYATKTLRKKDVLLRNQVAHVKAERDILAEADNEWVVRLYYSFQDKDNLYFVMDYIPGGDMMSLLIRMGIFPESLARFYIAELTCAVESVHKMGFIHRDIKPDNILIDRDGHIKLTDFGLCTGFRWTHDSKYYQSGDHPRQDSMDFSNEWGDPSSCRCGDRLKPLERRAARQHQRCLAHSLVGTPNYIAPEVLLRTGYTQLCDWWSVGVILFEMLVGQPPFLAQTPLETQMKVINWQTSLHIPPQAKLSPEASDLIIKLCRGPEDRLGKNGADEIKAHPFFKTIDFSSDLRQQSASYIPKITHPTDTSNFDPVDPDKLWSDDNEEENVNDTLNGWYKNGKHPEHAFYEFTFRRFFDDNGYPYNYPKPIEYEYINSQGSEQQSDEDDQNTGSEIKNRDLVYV
Sequence of Human LATS1 kinase domain protein (Q7L9L4 whole entry partner, looked up, the tested form may be a part): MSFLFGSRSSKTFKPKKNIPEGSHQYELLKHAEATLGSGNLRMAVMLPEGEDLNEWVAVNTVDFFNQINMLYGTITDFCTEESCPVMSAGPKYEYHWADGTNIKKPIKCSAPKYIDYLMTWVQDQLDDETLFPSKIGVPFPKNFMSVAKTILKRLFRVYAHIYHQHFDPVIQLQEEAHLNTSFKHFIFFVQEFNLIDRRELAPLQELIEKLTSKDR
Experimental: The LATS1 biochemical Caliper assay was performed as following.
Human LATS1 kinase domain protein was purchased from Carnabio (catalogue number 01-123; lot 15CBS-0098D). Human LATS1, catalytic domain [589-1130(end) amino acids of accession number NP_004681.1] was co-expressed as N-terminal GST-fusion protein (90 kDa) with human His-tagged MOBKL1A [1-216(end) amino acids of accession number NP_775739.1] using baculovirus expression system. GST-LATS1 was purified by using glutathione sepharose chromatography. The substrate (Fluo-SGKtide; Peptide for LATS1; lot BS-41067) has the following sequence: 5-Fluo-Nva-[…]-amide (SEQ ID NO: 27) x TFA and was purchased from Biosyntan.
The reaction is performed in reaction buffer containing 50 mM Hepes pH 7,5; 0.02% Tween20; 0.02% BSA; 1 mM DTT; 10 uM Na3VO4 and 10 mM beta-Glycerolphosphat and fresh added 1 mM MgCl2 and qsp H2O.
The substrate solution (2× conc.) in Reaction Buffer contains 300 μM ATP and 4 μM Fluo-SGKtide.
The kinase solution (2× conc.) in Reaction Buffer contains 20 nM LATS1 kinase. 4.5 μL of 2× conc. Kinase solution, 50 nL of 1.8 mM compounds and 4.5 μL of substrate solution were added into 384-well plates black small volume from Greiner and incubated at 32° C. for 1 hour. 15 μL of stop buffer containing 100 mM Hepes pH 7,5; 5% DMSO; 0.1% Coating reagent; 10 mM EDTA and 0.02% Brij35 and qsp H2O to each well to terminate the reaction.
Substrates and products were electrophoretically separated using the microfluidic-based Caliper EZ Reader System (Caliper Life Sciences) using a 12 sipper chip (cat 760404). The separation takes place in Coating Buffer (idem Stop buffer) and containing 0.1% Coating reagent CR3 and 0.5% coating reagent CR8 (Perkin Elmer).
Plates were read using a LED with an excitation at 488 nm and a detection at 520 nm to 5 quantify the fluorescence intensity.

Sequence of LATS1 (O95835 whole entry, looked up): as the sequence (O95835 whole entry, looked up, the tested form may be a part) above
Sequence of LATS1 (Q7L9L4 whole entry partner, looked up): as the sequence (Q7L9L4 whole entry partner, looked up, the tested form may be a part) above

Row | IC50 [1] [nM] | IC50 [4] [nM] | IC50 [5] [nM] | Structure (SMILES) | IC50 [2] [nM] | EC50 [3] [nM]
1 | 8 | > 10000 |  | CC[C@H](C)Nc1cc(-c2ccncc2)nc2cnccc12 [Example 256, N-[(2S)-butan-2-yl]-2-(pyridin-4-yl)-1,7-naphthyridin-4-amine] | 11100 | 15600
2 |  |  | 457 | CN1CCN(c2cc(-c3ccncc3)nc3cnccc23)CC1 [Example 291, 4-(4-methylpiperazin-1-yl)-2-(pyridin-4-yl)-1,7-naphthyridine] |  | 
3 |  |  | 43.3 | c1cc(-c2cc(N3CCNCC3)c3ccncc3n2)ccn1 [Example 292, 4-(piperazin-1-yl)-2-(pyridin-4-yl)-1,7-naphthyridine] |  | 
4 |  |  | 16 | CC1CCCCN1c1cc(-c2ccncc2)nc2cnccc12 (centres unmarked) [Example 293, 4-(2-methylpiperidin-1-yl)-2-(pyridin-4-yl)-1,7-naphthyridine] |  | 
5 |  |  | 209 | c1cc(-c2cc(NC3COC3)c3ccncc3n2)ccn1 [Example 296, N-(oxetan-3-yl)-2-(pyridin-4-yl)-1,7-naphthyridin-4-amine] |  | 
6 |  |  | 59 | CC1(C)CN(c2cc(-c3ccncc3)nc3cnccc23)CCN1 [Example 298, 4-(3,3-dimethylpiperazin-1-yl)-2-(pyridin-4-yl)-1,7-naphthyridine] |  | 
7 |  |  | 97.1 | CC1(C)CN(c2cc(-c3ccncc3)nc3cnccc23)CCO1 [Example 299, 2,2-dimethyl-4-(2-(pyridin-4-yl)-1,7-naphthyridin-4-yl)morpholine] |  | 
8 |  |  | 59.5 | CN(C)C(C)(C)CNc1cc(-c2ccncc2)nc2cnccc12 [Example 302, N^2,N^2,2-trimethyl-N^1-(2-(pyridin-4-yl)-1,7-naphthyridin-4-yl)propane-1,2-diamine] |  | 

More lines, now with the values behind:

Row | Structure (SMILES) | IC50 [1] [nM] | IC50 [4] [nM] | IC50 [5] [nM] | IC50 [2] [nM] | EC50 [3] [nM]
9 | Cc1n[nH]cc1-c1nc(NC(C)(C)CC(C)(C)O)c2ccncc2n1 [Example 140, 2,4-dimethyl-4-{[2-(3-methyl-1H-pyrazol-4-yl)pyrido[3,4-d]pyrimidin-4-yl]amino}pentan-2-ol] | 4 | 2200 |  | 1240 | 2260
10 | CCCNc1nc(-c2c[nH]c3ncccc23)nc2cnccc12 [Example 155, N-propyl-2-{1H-pyrrolo[2,3-b]pyridin-3-yl}pyrido[3,4-d]pyrimidin-4-amine] | 1 | 2600 |  | 1580 | 1050
11 | Cc1cnccc1-c1nc(NC(C)(C)C(F)(F)F)c2ccncc2n1 [Example 157, 2-(3-methylpyridin-4-yl)-N-(1,1,1-trifluoro-2-methylpropan-2-yl)pyrido[3,4-d]pyrimidin-4-amine] | 6 | 9200 |  | 4050 | 3780
12 | Cn1nccc1-c1nc(NC(C)(C)C)c2ccncc2n1 [Example 184, N-tert-butyl-2-(1-methyl-1H-pyrazol-5-yl)pyrido[3,4-d]pyrimidin-4-amine] | 4 | 6500 |  | 2510 | 2810
13 | CC1(Nc2nc(-c3ccncc3)nc3c(Cl)nccc23)CC1 [Example 198, 8-chloro-N-(1-methylcyclopropyl)-2-(pyridin-4-yl)pyrido[3,4-d]pyrimidin-4-amine] | 1 | 1300 |  | 2180 | 3230
14 | CC(C)(C)Nc1nc(-c2ccncc2)nc2cncc(Cl)c12 [Example 251, N-(tert-butyl)-5-chloro-2-(pyridin-4-yl)pyrido[3,4-d]pyrimidin-4-amine] | 4 | 1500 |  | 1960 | 10900
15 | COCCC(C)(C)Nc1cc(-c2ccncc2)nc2cnccc12 [Example 254, N-(4-methoxy-2-methylbutan-2-yl)-2-(pyridin-4-yl)-1,7-naphthyridin-4-amine] | 5 | 1300 |  | 2910 | 4630
16 | CC(C)OCC(C)(C)Nc1cc(-c2ccncc2)nc2cnccc12 [Example 255, N-[2-methyl-1-(propan-2-yloxy)propan-2-yl]-2-(pyridin-4-yl)-1,7-naphthyridin-4-amine] | 8 | 7100 |  | 3180 | 5390
17 | CC(C)(O)CC(C)(C)Nc1cc(-c2ccncc2)nc2cnccc12 [Example 263, 2,4-dimethyl-4-{[2-(pyridin-4-yl)-1,7-naphthyridin-4-yl]amino}pentan-2-ol] | 7 | > 10000 |  | 3220 | 5990
18 | CN(C)CCC(C)(C)Nc1cc(-c2ccncc2)nc2cnccc12 [Example 265, dimethyl(3-methyl-3-{[2-(pyridin-4-yl)-1,7-naphthyridin-4-yl]amino}butyl)amine] | 8 | > 10000 |  | 22300 | > 20000
19 | CC(C)(O)COCC(C)(C)Nc1cc(-c2ccncc2)nc2cnccc12 [Example 267, 2-methyl-1-(2-methyl-2-{[2-(pyridin-4-yl)-1,7-naphthyridin-4-yl]amino}propoxy)propan-2-ol] | 13 | 5900 |  | 7190 | 9750
20 | Cc1n[nH]cc1-c1cc(NC(C)(C)C)c2ccncc2n1 [Example 269, N-tert-butyl-2-(3-methyl-1H-pyrazol-4-yl)-1,7-naphthyridin-4-amine] | 1 | 800 |  | 294 | 438
21 | CC(C)(C)Nc1cc(-c2ccncn2)nc2cnccc12 [Example 270, N-tert-butyl-2-(pyrimidin-4-yl)-1,7-naphthyridin-4-amine] | 2 | 800 |  | 423 | 873
22 | CC(C)(C)Nc1cc(-c2ccnc(N)n2)nc2cnccc12 [Example 271, 2-(2-aminopyrimidin-4-yl)-N-tert-butyl-1,7-naphthyridin-4-amine] | 2 | 800 |  | 187 | 1070
23 | CC(C)(C)Nc1cc(-c2ccnc3[nH]ccc23)nc2cnccc12 [Example 272, N-tert-butyl-2-{1H-pyrrolo[2,3-b]pyridin-4-yl}-1,7-naphthyridin-4-amine] | 2 | 8100 |  | 3510 | 5970
24 | CC(C)(C)Nc1cc(-c2ccnnc2)nc2cnccc12 [Example 273, N-tert-butyl-2-(pyridazin-4-yl)-1,7-naphthyridin-4-amine] | 463 | > 10000 |  | > 100000 | > 20000
25 | CC(C)(C)Nc1cc(-c2ccncc2F)nc2cnccc12 [Example 280, N-tert-butyl-2-(3-fluoropyridin-4-yl)-1,7-naphthyridin-4-amine] | 3 | 3800 |  | 476 | 2730
26 | CCC(C)(C)Nc1cc(-c2ccncc2F)nc2cnccc12 [Example 281, 2-(3-fluoropyridin-4-yl)-N-(2-methylbutan-2-yl)-1,7-naphthyridin-4-amine] | 4 | 5900 |  | 656 | 2890

— patent US11458138B2 (Novartis AG, priority 2017, dated 2022)
